Here are results for three compounds from article PMC4721923 (PLoS ONE, 2015).

Where two headings read alike, the source gives them in different places.

Data set [1] deals with T1, OCT1 (Homo sapiens, UniProt O15245).
T1 construct: containing the full length SLC22A1 cDNA (NM_003057) encoding the human OCT1 protein; expressed in transfected cells
T1 sequence (O15245 1-554): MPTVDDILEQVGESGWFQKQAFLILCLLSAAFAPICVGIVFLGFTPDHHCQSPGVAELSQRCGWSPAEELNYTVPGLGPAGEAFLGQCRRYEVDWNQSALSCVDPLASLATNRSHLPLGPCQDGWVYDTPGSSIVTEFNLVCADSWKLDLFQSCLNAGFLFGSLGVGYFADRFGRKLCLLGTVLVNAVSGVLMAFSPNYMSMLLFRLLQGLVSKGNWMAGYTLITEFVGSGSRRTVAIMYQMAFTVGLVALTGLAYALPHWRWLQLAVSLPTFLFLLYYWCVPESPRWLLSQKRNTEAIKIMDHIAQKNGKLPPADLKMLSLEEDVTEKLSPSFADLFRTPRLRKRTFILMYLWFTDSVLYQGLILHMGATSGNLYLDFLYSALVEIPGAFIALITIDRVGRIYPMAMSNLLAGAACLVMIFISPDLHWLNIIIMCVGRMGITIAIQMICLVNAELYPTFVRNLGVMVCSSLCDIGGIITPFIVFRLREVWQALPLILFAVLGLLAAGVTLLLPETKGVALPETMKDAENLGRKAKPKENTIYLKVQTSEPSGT
As to the kind of experiment: Confocal laser scanning microscopy of ASP+ uptake, HEK-OCT1. The format is cell-based. The conditions noted are these: compound 5 15 μM; TPA 200 μM; ASP+ 1 μM. The protocol:
(§1) HEK-Co, HEK-OCT1 and HEK-OCT3 cells were seeded into 8-well μ-Slides (Ibidi, Munich, Germany) (2 · 10^4 cells/well) and allowed to attach for 48 hours. Prior to the staining procedure, the medium was replaced by PBS and the DNA probe Draq5 (5 μM) (Biostatus, Shepshed, UK) was added to each well. […] Subsequently, ASP^+ was added to reach a concentration of 1 μM, and the cells were incubated for 5 minutes in the dark. Imaging was performed with an Axiovert 200 M confocal microscope coupled to a Zeiss LSM 510 scanning device (Carl Zeiss, Oberkochen, Germany) using a Plan-Apochromat 63x/1.40 oil immersion objective. Draq5 was excited at 633 nm and fluorescence was detected using a 650 nm long-pass filter, ASP^+ was excited at 488 nm and detected using a 565/35 nm band-pass filter.

Data set [2] addresses T2, OCT3 (Homo sapiens, UniProt O75751).
T2 construct: expressed in transfected cells; host or cells: HEK293 (HEK-OCT3)
T2 sequence (O75751 1-556): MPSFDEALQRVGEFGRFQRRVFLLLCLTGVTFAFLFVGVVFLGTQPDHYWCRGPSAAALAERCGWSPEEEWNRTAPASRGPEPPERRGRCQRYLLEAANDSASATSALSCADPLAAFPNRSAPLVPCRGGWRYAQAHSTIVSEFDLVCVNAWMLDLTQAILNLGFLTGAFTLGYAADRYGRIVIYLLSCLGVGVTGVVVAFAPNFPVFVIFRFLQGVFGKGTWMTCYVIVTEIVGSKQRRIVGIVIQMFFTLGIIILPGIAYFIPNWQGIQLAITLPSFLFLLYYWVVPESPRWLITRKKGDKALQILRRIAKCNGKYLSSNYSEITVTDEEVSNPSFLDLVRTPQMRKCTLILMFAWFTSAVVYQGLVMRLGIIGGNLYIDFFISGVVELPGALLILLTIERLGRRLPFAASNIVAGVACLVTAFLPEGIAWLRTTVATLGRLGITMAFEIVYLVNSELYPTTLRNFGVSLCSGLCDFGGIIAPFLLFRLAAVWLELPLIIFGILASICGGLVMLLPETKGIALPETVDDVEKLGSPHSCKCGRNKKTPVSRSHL
As to the kind of experiment: Confocal laser scanning microscopy of ASP+ uptake, HEK-OCT3. The format is cell-based. Conditions: compound 5 15 μM; TPA 200 μM; ASP+ 1 μM. Here is the method:
as §1

In data set [3] the test system is HaCaT cells (spontaneously immortalized human keratinocytes). As to the kind of experiment: Kinetic toxicity assay (crystal violet) on HaCaT cells. Conditions: kinetic assay, 0.1, 1 and 10 μM, 5 days. In kind it is cell-based. The protocol:
Depending on the characteristics of the cells, two different assays were performed. For adherently growing cells (HaCaT, HT-29, NCI-H460, SK-MEL-3, MG-63, Capan-1), cytotoxic and cytocidal effects were determined in the crystal violet assay, whereas for loosely adherent cells (LNCaP, SK-ES-1) and cells growing in suspension (HEL 92.1.7, Jurkat, U-937) the MTT-assay was used with minor modifications. In brief, 1.5 · 10^3 (HaCaT, HT-29, NCI-H460, SK-MEL-3, MG-63, Capan-1) or 5 · 10^3 (Jurkat, U-937, HEL92.1.7, LNCaP, SK-ES-1) cells per well were seeded into flat-bottom 96-well plates (Sarstedt, Nümbrecht, Germany). […] In case of the vehicle control and test compounds, the final DMSO concentration amounted to 0.1%. Absorbance was measured at 580 nm in a 96-well plate reader (GENios pro microplate reader, Tecan, Salzburg, Austria). Effects were quantified as previously described for both assays.

Data set [4] concerns p53 in various tumor cell types. Further details: method as in PMID 17653574. The conditions noted are these: cited from earlier work.
Data set [5] concerns myeloma cells. Further details: method as in PMID 17653574, PMID 23380051. Conditions: cited from earlier work.
In data set [6] the test system is Jurkat cells. Further details: method as in Hiraoka et al. 50. Conditions: ref Hiraoka et al. 50; cited from earlier work.
The conditions of data set [7]: plasma, intravenous administration, cited from earlier work.

`Cn1c(CCCC(=O)OCCN2CCCC2)nc2cc(N(CCCl)CCCl)ccc21` [Compound 5]: the “effect on OCT1 activity (ASP+ uptake, imaging)” value in data set [1] is listed as “inhibited”. Besides, the “effect on OCT3 activity (ASP+ uptake, imaging)” value in data set [2] is “inhibited”. For the same compound, the “toxicity on HaCaT cells compared to tumor cells” value in data set [3] is “preferential toxicity against tumor cells”.

For the compound `Cn1c(CCCC(=O)OCCN2CCOCC2)nc2cc(N(CCCl)CCCl)ccc21` [Compound 4], in data set [3], the “toxicity on HaCaT cells compared to tumor cells” value is given as “preferential toxicity against tumor cells”.

One may read the IC50 as the midpoint of a concentration-inhibition curve. In general, Cmax refers to the highest concentration seen after dosing. `Cn1c(CCCC(=O)O)nc2cc(N(CCCl)CCCl)ccc21` [Compound 1, bendamustine, reference compound]: the “concentration required for significant induction of p53 expression” value in data set [4] is no less than 80 µM. Besides, the IC50 was roughly 100 µM in data set [5] and roughly 50 µM in data set [6]. Besides, the Cmax was roughly 17 µM in data set [7] (converted, ref 51); roughly 31 µM in data set [7] (converted, ref 52); 6000 ng/mL in data set [7] (ref 51); 11000 ng/mL in data set [7] (ref 52).
